Activity calls are given as the source filed them. No cut-off for these calls is given here.
Assays:
HepG2 = test: Anticancer activity against human HepG2 cells assessed as inhibition of cell growth measured after 48 hrs by MTT assay; assay type: functional, cell-based; conditions: HepG2, 48 h
MCF7 = test: Anticancer activity against human MCF7 cells assessed as inhibition of cell growth measured after 48 hrs by MTT assay; assay type: functional, cell-based; conditions: MCF7, 48 h
K562 [1] = test: Anticancer activity against human K562 cells assessed as inhibition of cell growth measured after 48 hrs by MTT assay; assay type: functional, cell-based; conditions: K562, 48 h
[2] = Cytotoxicity against HEK293 cells assessed as inhibition of cell growth measured after 48 hrs by MTT assay; assay type: toxicity, cell-based; conditions: human
HeLa [3] = test: Anticancer activity against human HeLa cells assessed as inhibition of cell growth measured after 48 hrs by MTT assay; assay type: functional, cell-based
DU-145 = test: Anticancer activity against human DU-145 cells assessed as inhibition of cell growth measured after 48 hrs by MTT assay; assay type: functional, cell-based; conditions: DU-145, 48 h
HeLa [4] = test: Induction of apoptosis in human HeLa cells assessed as viable cells at 5 uM measured after 48 hrs by annexin V-FITC based propidium iodide dual staining based flow cytometry analysis (reference value: 81.7%); assay type: functional; conditions: read-out: Activity
HeLa [5] = test: Induction of cell cycle arrest in human HeLa cells assessed as accumulation of cells at subG1 phase at 1 uM measured after 48 hrs by propidium iodide staining based flow cytometry analysis (reference value: 6.8%); assay type: functional
HeLa [6] = test: Induction of apoptosis in human HeLa cells assessed as early apoptotic cells at 1 uM measured after 48 hrs by annexin V-FITC based propidium iodide dual staining based flow cytometry analysis (reference value: 13.8%); assay type: functional
HeLa [7] = test: Induction of apoptosis in human HeLa cells assessed as necrotic cells at 5 uM measured after 48 hrs by annexin V-FITC based propidium iodide dual staining based flow cytometry analysis (reference value: 1.0%); assay type: functional
HeLa [8] = test: Induction of apoptosis in human HeLa cells assessed as late apoptotic cells at 5 uM measured after 48 hrs by annexin V-FITC based propidium iodide dual staining based flow cytometry analysis (reference value: 3.5%); assay type: functional
HeLa [9] = test: Induction of cell cycle arrest in human HeLa cells assessed as accumulation of cells at G2/M phase at 1 uM measured after 48 hrs by propidium iodide staining based flow cytometry analysis (reference value: 6.9%); assay type: functional
HeLa [10] = test: Induction of apoptosis in human HeLa cells assessed as early apoptotic cells at 5 uM measured after 48 hrs by annexin V-FITC based propidium iodide dual staining based flow cytometry analysis (reference value: 13.8%); assay type: functional
HeLa [11] = test: Induction of cell cycle arrest in human HeLa cells assessed as accumulation of cells at S phase at 5 uM measured after 48 hrs by propidium iodide staining based flow cytometry analysis (reference value: 1.0%); assay type: functional
HeLa [12] = test: Induction of cell cycle arrest in human HeLa cells assessed as accumulation of cells at G0/G1 phase at 5 uM measured after 48 hrs by propidium iodide staining based flow cytometry analysis (reference value: 85.6%); assay type: functional
HeLa [13] = test: Induction of apoptosis in human HeLa cells assessed as viable cells at 1 uM measured after 48 hrs by annexin V-FITC based propidium iodide dual staining based flow cytometry analysis (reference value: 81.7%); assay type: functional; conditions: read-out: Activity
HeLa [14] = test: Induction of cell cycle arrest in human HeLa cells assessed as accumulation of cells at G2/M phase at 5 uM measured after 48 hrs by propidium iodide staining based flow cytometry analysis (reference value: 6.9%); assay type: functional
HeLa [15] = test: Induction of cell cycle arrest in human HeLa cells assessed as accumulation of cells at G0/G1 phase at 1 uM measured after 48 hrs by propidium iodide staining based flow cytometry analysis (reference value: 85.6%); assay type: functional
HeLa [16] = test: Induction of cell cycle arrest in human HeLa cells assessed as accumulation of cells at subG1 phase at 5 uM measured after 48 hrs by propidium iodide staining based flow cytometry analysis (reference value: 6.8%); assay type: functional
K562 [17] = test: Downregulation of MCL-1 expression in human K562 cells at 1 to 5 uM measured after 48 hrs by RT-qPCR analysis; assay type: functional, cell-based; conditions: dose 1-5 µM
HeLa [18] = test: Induction of apoptosis in human HeLa cells assessed as late apoptotic cells at 1 uM measured after 48 hrs by annexin V-FITC based propidium iodide dual staining based flow cytometry analysis (reference value: 3.5%); assay type: functional
K562 [19] = test: Downregulation of EGFR expression in human K562 cells at 1 to 5 uM measured after 48 hrs by RT-qPCR analysis; assay type: functional, cell-based; conditions: dose 1-5 µM
HeLa [20] = test: Induction of apoptosis in human HeLa cells assessed as necrotic cells at 1 uM measured after 48 hrs by annexin V-FITC based propidium iodide dual staining based flow cytometry analysis (reference value: 1.0%); assay type: functional
HeLa [21] = test: Induction of cell cycle arrest in human HeLa cells assessed as accumulation of cells at S phase at 1 uM measured after 48 hrs by propidium iodide staining based flow cytometry analysis (reference value: 1.0%); assay type: functional
K562 [22] = test: Downregulation of EGFR expression in human K562 cells measured after 48 hrs by RT-qPCR analysis; assay type: functional, cell-based; conditions: dose 1-5 µM
K562 [23] = test: Downregulation of MCL-1 expression in human K562 cells measured after 48 hrs by RT-qPCR analysis; assay type: functional, cell-based; conditions: dose 1-5 µM
HeLa [24] = test: Induction of apoptosis in human HeLa cells assessed as nuclear condensation at 1 to 5 uM measured after 48 hrs by Hoechst staining based fluorescent microscopic analysis; assay type: functional, cell-based; conditions: dose 1-5 µM

Compound	IC50 (HepG2) [µM]	IC50 (MCF7) [µM]	IC50 (K562 [1]) [µM]	IC50 (HeLa [3]) [µM]	IC50 (DU-145) [µM]	IC50 at 48 h [2] [µM]	also measured
CC1(C)OC(=O)C(=Cc2cn(Cc3cn(-c4cccc(Cl)c4)nn3)c3ncccc23)C(=O)O1	26.6	20.1	17.2	12.8	28.4	> 100	
CC1(C)OC(=O)C(=Cc2cn(Cc3cn(-c4ccccc4)nn3)c3ncccc23)C(=O)O1	29.2	28.3	20.2	21.3	49.3	> 100	
CC1(C)OC(=O)C(=Cc2cn(Cc3cn(-c4cc(Cl)cc(Cl)c4)nn3)c3ncccc23)C(=O)O1	49.4	25.4	26.8	25	37.8	> 100	
COc1cc(OC)cc(-n2cc(Cn3cc(C=C4C(=O)OC(C)(C)OC4=O)c4cccnc43)nn2)c1	28.4	20.2	14.5	9.68	14.7	81.7	
CC1(C)OC(=O)C(=Cc2cn(Cc3cn(-c4ccc(Cl)cc4)nn3)c3ncccc23)C(=O)O1	24.5	22.9	20.5	16.7	22.6	97.3	
COc1ccc(-n2cc(Cn3cc(C=C4C(=O)OC(C)(C)OC4=O)c4cccnc43)nn2)cc1	42.1	36.1	16.4	15.9	33.8	99.7	
CC1(C)OC(=O)C(=Cc2cn(Cc3cn(-c4ccc(Cl)c(Cl)c4)nn3)c3ncccc23)C(=O)O1	26.1	24.2	20.2	16.6	33.8	> 100	
CC1(C)OC(=O)C(=Cc2cn(Cc3cn(-c4ccc(F)cc4)nn3)c3ncccc23)C(=O)O1	37	20.8	19.1	18.9	22.8	> 100	
CC1(C)OC(=O)C(=Cc2cn(Cc3cn(-c4ccc([N+](=O)[O-])cc4)nn3)c3ncccc23)C(=O)O1	30.1	25.8	21.4	19.4	27.7	> 100	

Further lines, with some results ahead:

IC50 (HepG2) [µM]	IC50 (MCF7) [µM]	IC50 (K562 [1]) [µM]	IC50 (HeLa [3]) [µM]	IC50 (DU-145) [µM]	Compound	IC50 at 48 h [2] [µM]	also measured
21.9	18	16.1	12.8	15.4	CC1(C)OC(=O)C(=Cc2cn(Cc3cn(-c4ccccc4Cl)nn3)c3ncccc23)C(=O)O1	> 100	
29.1	7.32	12.5	6.87	15.4	CC1(C)OC(=O)C(=Cc2cn(Cc3cn(-c4ccc(Br)cc4)nn3)c3ncccc23)C(=O)O1	93.9	
27.9	15.2	16.8	16.2	32.1	CC1(C)OC(=O)C(=Cc2cn(Cc3cn(-c4ccc(I)cc4)nn3)c3ncccc23)C(=O)O1	> 100	
27.8	19.9	19.1	10.3	22.6	CC1(C)OC(=O)C(=Cc2cn(Cc3cn(-c4ccc(Br)cc4F)nn3)c3ncccc23)C(=O)O1	90.8	
	1.48	1.23			COc1cccc2c1C(=O)c1c(O)c3c(c(O)c1C2=O)C[C@@](O)(C(=O)CO)C[C@@H]3O[C@H]1C[C@H](N)[C@H](O)[C@H](C)O1 [DOXORUBICIN]		viability at 5 µM (HeLa [4]): 64.4%; Activity (HeLa [5]): 4.2%; Activity (HeLa [6]): 19.6%; Activity (HeLa [7]): 0.5%; Activity (HeLa [8]): 4.8%; Activity (HeLa [9]): 34.2%; Activity (HeLa [10]): 30.3%; Activity (HeLa [11]): 2.6%; Activity (HeLa [12]): 40.3%; viability at 1 µM (HeLa [13]): 75.6%; Activity (HeLa [14]): 52.7%; Activity (HeLa [15]): 60%; Activity (HeLa [16]): 3.7%; Activity (K562 [17]): Active; Activity (HeLa [18]): 3.1%; Activity (K562 [19]): Active; Activity (HeLa [20]): 1.7%; Activity (HeLa [21]): 3%
9.97	6.67	6.03	4.44	12.4	Cc1ccc(-n2cc(Cn3cc(C=C4C(=O)OC(C)(C)OC4=O)c4cccnc43)nn2)cc1	> 100	Activity (K562 [22]): Dose-Dependent Effect; viability at 5 µM (HeLa [4]): 55.4%; Activity (HeLa [5]): 6%; Activity (HeLa [6]): 16.8%; Activity (HeLa [7]): 0.3%; Activity (HeLa [8]): 4.6%; Activity (HeLa [9]): 20.7%; Activity (HeLa [10]): 39.7%; Activity (HeLa [11]): 2.7%; Activity (HeLa [12]): 39.1%; viability at 1 µM (HeLa [13]): 79.2%; Activity (HeLa [14]): 54.4%; Activity (HeLa [15]): 72.2%; Activity (HeLa [16]): 3.1%; Activity (K562 [23]): Dose-Dependent Effect; Activity (HeLa [18]): 2.5%; Activity (HeLa [20]): 1.5%; Activity (HeLa [24]): Active; Activity (HeLa [21]): 2.1%
20.1	13.1	14.3	9.52	18.8	COc1cc(-n2cc(Cn3cc(C=C4C(=O)OC(C)(C)OC4=O)c4cccnc43)nn2)cc(OC)c1OC	76.6	

From ChEMBL document CHEMBL5634208, “Design and synthesis of Meldrum's acid based 7-azaindole anchored 1,2,3-triazole hybrids as anticancer agents” (RSC Med Chem, 2024)
